# Assay results published in US20240150293A1, “SPIROCYCLOHEXANE DERIVATIVES, PHARMACEUTICAL COMPOSITIONS CONTAINING THEM AND THEIR USES AS ANTI-APOPTOTIC INHIBITORS” (LES LABORATOIRES SERVIER, priority 2021, published 2024).
# Molecular target: Mcl-1 protein (UniProtKB Q07820) (Homo sapiens (Human), UniProt Q07820)
# Assay: Inhibition of Mcl-1 by the fluorescence polarisation assay (Example A, Method A)
# Type: binding
# Details: fluorescence polarization assay
# Procedure, shortened: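 Protein (5 nM) and fluorescein-tagged peptide tracer (1 nM) incubated with 11-point compound series for 2 h at room temperature in HEPES/NaCl/Tween 20 buffer, pH 7.4, 5% DMSO. Displacement read as decrease in polarisation; IC50 fitted by 4-parameter logistic, converted to Ki (cKi or eKi).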
# Sequence of Mcl-1 protein (Q07820 whole entry): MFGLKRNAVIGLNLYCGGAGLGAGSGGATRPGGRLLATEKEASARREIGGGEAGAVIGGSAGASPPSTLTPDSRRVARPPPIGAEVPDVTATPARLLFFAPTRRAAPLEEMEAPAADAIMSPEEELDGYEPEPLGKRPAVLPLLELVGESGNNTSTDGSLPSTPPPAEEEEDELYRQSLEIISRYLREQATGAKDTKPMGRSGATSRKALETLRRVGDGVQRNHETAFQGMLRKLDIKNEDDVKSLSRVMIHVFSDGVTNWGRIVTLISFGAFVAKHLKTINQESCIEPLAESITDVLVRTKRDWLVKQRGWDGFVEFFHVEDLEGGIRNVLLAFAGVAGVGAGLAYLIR
row,SMILES,Ki [µM]
1,"CN1c2ccc(-c3ccccc3)cc2[C@]2(CC[C@](Nc3cccc(Br)c3)(C(=O)O)CC2)C1=O [Example 10, (1r,4r)-4-(3-bromoanilino)-1′-methyl-2′-oxo-5′-phenyl-1′,2′-dihydrospiro[cyclohexane-1,3′-indole]-4-carboxylic acid]",10.7
2,"Cc1ccc(C2Cc3ccccc3C23CCC(Nc2cccc(Br)c2)(C(=O)O)CC3)s1 (single isomer, unassigned) [Example 262, 4-(3-bromoanilino)-2′-(5-methylthiophen-2-yl)-2′,3′-dihydrospiro[cyclohexane-1,1′-indene]-4-carboxylic acid]",0.236
3,"COc1ccc(C2=Cc3ccccc3[C@]23CC[C@](Nc2cccc(Cl)c2)(C(=O)O)CC3)c(C)c1 [Example 228, (1r,4r)-4-(3-chloroanilino)-2′-(4-methoxy-2-methylphenyl)spiro[cyclohexane-1,1′-indene]-4-carboxylic acid]",14.7
4,"O=C(O)[C@]1(Nc2cccc(Cl)c2)CC[C@]2(C=Cc3ccccc32)CC1 [Example 65, (1s,4s)-4-(3-chloroanilino)spiro[cyclohexane-1,1′-indene]-4-carboxylic acid]",4.99
5,"O=C(O)[C@]1(Nc2cccc(Cl)c2)CC[C@]2(CC1)C(CCCc1ccc(Cl)cc1)=Cc1ccccc12 [Example 157, (1r,4r)-4-(3-chloroanilino)-2′-[3-(4-chlorophenyl)propyl]spiro[cyclohexane-1,1′-indene]-4-carboxylic acid]",0.846
6,"Cc1ccc(C2Cc3ccccc3C23CCC(Nc2cccc(Br)c2)(C(=O)O)CC3)cc1 (stereo not shown) [Example 216, 4-(3-bromoanilino)-2′-(4-methylphenyl)-2′,3′-dihydrospiro[cyclohexane-1,1′-indene]-4-carboxylic acid]",1.74
7,"O=C(O)[C@]1(Nc2cccc(Cl)c2)CC[C@@]2(CC1)c1ccccc1CC2[C@H]1C[C@@H]1COc1ccccc1 (relative stereo) [Example 109, (1r,4r)-4-(3-chloroanilino)-2′-[(1R*,2S*)-2-(phenoxymethyl)cyclopropyl]-2′,3′-dihydrospiro[cyclohexane-1,1′-indene]-4-carboxylic acid]",0.745
8,"CCOC/C=C/C1=Cc2ccccc2[C@]12CC[C@@](Nc1cccc(Cl)c1)(C(=O)O)CC2 [Example 154, (1r,4r)-4-(3-chloroanilino)-2′-[(1E)-3-ethoxyprop-1-en-1-yl]spiro[cyclohexane-1,1′-indene]-4-carboxylic acid]",0.162
9,"O=C(O)[C@]1(Nc2cccc(Cl)c2)CC[C@]2(CC1)C(C1CC(OCc3ccccc3)C1)=Cc1ccccc12 (stereo partly shown) [Example 97, (1r,4r)-2′-[3-(benzyloxy)cyclobutyl]-4-(3-chloroanilino)spiro[cyclohexane-1,1′-indene]-4-carboxylic acid]",0.578
10,"O=C(O)[C@]1(Nc2cccc(Cl)c2)CC[C@@]2(CC1)c1ccccc1CC2CCOc1ccnc(F)c1 (stereo partly shown) [Example 187, (1r,4r)-4-(3-chloroanilino)-2′-{2-[(2-fluoropyridin-4-yl)oxy]ethyl}-2′,3′-dihydrospiro[cyclohexane-1,1′-indene]-4-carboxylic acid]",0.271
11,"O=C(O)[C@]1(Nc2cccc(Cl)c2)CC[C@@]2(CC1)c1ccccc1CC2CCOc1ccnc2ccsc12 (stereo partly shown) [Example 186, (1r,4r)-4-(3-chloroanilino)-2′-{2-[(thieno[3,2-b]pyridin-7-yl)oxy]ethyl}-2′,3′-dihydrospiro[cyclohexane-1,1′-indene]-4-carboxylic acid]",0.123
12,"C=CCOC1Cc2ccccc2[C@]12CC[C@@](Nc1cccc(Br)c1)(C(=O)O)CC2 (stereo partly shown) [Example 121, (1s,4s)-4-(3-bromoanilino)-2′-[(prop-2-en-1-yl)oxy]-2′,3′-dihydrospiro[cyclohexane-1,1′-indene]-4-carboxylic acid]",1.55
13,"O=C(O)[C@]1(Nc2cccc(Cl)c2)CC[C@@]2(CC1)c1ccccc1[C@@H]1C[C@@H]12 (single isomer, unassigned) [Example 108, (1r,1′aR*,4r,6′aS*)-4-(3-chloroanilino)-1′a,6′a-dihydro-1′H-spiro[cyclohexane-1,6′-cyclopropa[a]indene]-4-carboxylic acid]",5.73
14,"O=C(O)[C@]1(Nc2cccc(Br)c2)CC[C@]2(CC1)c1ccccc1CC2c1ccccc1 (single isomer, unassigned) [Example 210, (1s,4s)-4-(3-bromoanilino)-2′-phenyl-2′,3′-dihydrospiro[cyclohexane-1,1′-indene]-4-carboxylic acid]",89
15,"Cc1cccc(C2Cc3ccccc3C23CCC(Nc2cccc(Br)c2)(C(=O)O)CC3)c1 (stereo not shown) [Example 215, 4-(3-bromoanilino)-2′-(3-methylphenyl)-2′,3′-dihydrospiro[cyclohexane-1,1′-indene]-4-carboxylic acid]",0.846
16,"COc1cc2c(cc1OC)[C@]1(CC[C@@](Nc3cccc(Cl)c3)(C(=O)O)CC1)C(Br)=C2 [Example 136, (1s,4s)-2′-bromo-4-(3-chloroanilino)-5′,6′-dimethoxyspiro[cyclohexane-1,1′-indene]-4-carboxylic acid]",0.259
17,"CC1=Cc2cc(Cl)ccc2C12CCC(Nc1cccc(Br)c1)(C(=O)O)CC2 (stereo not shown) [Example 124, 4-(3-bromoanilino)-5′-chloro-2′-methylspiro[cyclohexane-1,1′-indene]-4-carboxylic acid]",1.29

# Now from value to compound:
row,Ki [µM],SMILES
1,17.7,"COc1cccc(C2Cc3ccccc3[C@]23CC[C@@](Nc2cccc(Cl)c2)(C(=O)O)CC3)c1C (single isomer, unassigned) [Example 322, (1r,4r)-4-(3-chloroanilino)-2′-(3-methoxy-2-methylphenyl)-2′,3′-dihydrospiro[cyclohexane-1,1′-indene]-4-carboxylic acid]"
2,15.2,"O=C(NCCc1ccccc1)C1Cc2ccccc2[C@]12CC[C@@](Nc1cccc(Cl)c1)(C(=O)O)CC2 (single isomer, unassigned) [Example 405, (1r,4r)-4-(3-chloroanilino)-2′-[(2-phenylethyl)carbamoyl]-2′,3′-dihydrospiro[cyclohexane-1,1′-indene]-4-carboxylic acid]"
3,0.32,"Cc1cnccc1CCCOC1Cc2ccccc2[C@]12CC[C@@](Nc1cccc(Cl)c1)(C(=O)O)CC2 (stereo partly shown) [Example 401, (1s,4s)-4-(3-chloroanilino)-2′-[3-(3-methylpyridin-4-yl)propoxy]-2′,3′-dihydrospiro[cyclohexane-1,1′-indene]-4-carboxylic acid]"
4,0.312,"COc1ccccc1CCOCC1=Cc2ccccc2[C@]12CC[C@@](Nc1cccc(Cl)c1)(C(=O)O)CC2 [Example 414, (1s,4s)-4-(3-chloroanilino)-2′-{[2-(2-methoxyphenyl)ethoxy]methyl}spiro[cyclohexane-1,1′-indene]-4-carboxylic acid]"
5,0.124,"Cc1cnccc1OC[C@H](C)CC1Cc2ccccc2[C@]12CC[C@@](Nc1cccc(Cl)c1)(C(=O)O)CC2 (stereo partly drawn) [Example 576, (1r,4R)-4-(3-chloroanilino)-2′-{(2R)-2-methyl-3-[(3-methylpyridin-4-yl)oxy]propyl}-2′,3′-dihydrospiro[cyclohexane-1,1′-indene]-4-carboxylic acid]"
6,0.141,"O=C(O)[C@]1(Nc2cccc(Br)c2)CC[C@]2(CC1)C(CCCOc1ccnc3ccsc13)=Cc1ccccc12 [Example 454, (1r,4r)-4-(3-bromoanilino)-2′-{3-[(thieno[3,2-b]pyridin-7-yl)oxy]propyl}spiro[cyclohexane-1,1′-indene]-4-carboxylic acid]"
7,0.473,"O=C(O)[C@]1(Nc2cccc(Cl)c2)CC[C@]2(CC1)C(COCCc1cccc(F)c1)=Cc1ccccc12 [Example 412, (1s,4s)-4-(3-chloroanilino)-2′-{[2-(3-fluorophenyl)ethoxy]methyl}spiro[cyclohexane-1,1′-indene]-4-carboxylic acid]"
8,0.174,"O=C(O)[C@]1(Nc2cccc(Cl)c2)CC[C@]2(CC1)C(c1cccc(Oc3ccccc3)c1)=Cc1ccccc12 [Example 300, (1s,4s)-4-(3-chloroanilino)-2′-(3-phenoxyphenyl)spiro[cyclohexane-1,1′-indene]-4-carboxylic acid]"
9,5.69,"O=C(O)[C@]1(Nc2cccc(Cl)c2)CC[C@@]2(CC1)c1ccccc1C[C@@H]2c1cc2ccccc2o1 [Example 338, (1r,2′S,4S)-2′-(1-benzofuran-2-yl)-4-(3-chloroanilino)-2′,3′-dihydrospiro[cyclohexane-1,1′-indene]-4-carboxylic acid]"
10,9.96,"O=C(O)[C@]1(Nc2cccc(Cl)c2)CC[C@@]2(CC1)c1ccccc1CC2c1cccc(OCC2CC2)c1 (single isomer, unassigned) [Example 355, (1r,4r)-4-(3-chloroanilino)-2′-[3-(cyclopropylmethoxy)phenyl]-2′,3′-dihydrospiro[cyclohexane-1,1′-indene]-4-carboxylic acid]"
11,0.704,"O=C(O)[C@]1(Nc2cccc(Cl)c2)CC[C@]2(CC1)C(COCCc1ccc(F)cc1)=Cc1ccccc12 [Example 413, (1s,4s)-4-(3-chloroanilino)-2′-{[2-(4-fluorophenyl)ethoxy]methyl}spiro[cyclohexane-1,1′-indene]-4-carboxylic acid]"
12,0.0566,"CC1(C)CCc2ncnc(OCCCC3Cc4ccccc4[C@]34CC[C@@](Nc3cccc(Cl)c3)(C(=O)O)CC4)c21 (stereo partly shown) [Example 466, (1r,4r)-4-(3-chloroanilino)-2′-{3-[(5,5-dimethyl-6,7-dihydro-5H-cyclopenta[d]pyrimidin-4-yl)oxy]propyl}-2′,3′-dihydrospiro[cyclohexane-1,1′-indene]-4-carboxylic acid]"
13,0.544,"O=C(O)[C@]1(Nc2cccc(Cl)c2)CC[C@]2(CC1)C(c1ccc(Oc3cccnc3)cc1)=Cc1ccccc12 [Example 351, (1s,4s)-4-(3-chloroanilino)-2′-{4-[(pyridin-3-yl)oxy]phenyl}spiro[cyclohexane-1,1′-indene]-4-carboxylic acid]"
14,0.138,"O=C(O)[C@]1(Nc2cccc(Cl)c2)CC[C@@]2(CC1)c1ccccc1CC2CCCOc1ccccc1Cl (stereo partly shown) [Example 431, (1r,4r)-4-(3-chloroanilino)-2′-[3-(2-chlorophenoxy)propyl]-2′,3′-dihydrospiro[cyclohexane-1,1′-indene]-4-carboxylic acid]"
